Patent US11311513B2, “Methods, agents, and compositions for the treatment of acute myeloid leukemia” (UNIVERSITY OF CINCINNATI, priority 2017, dated 2022)
Read-outs that look alike come from different tables or passages of the source.

Experiments:
TET1 = TET1 expression by qPCR in AML cell lines; assay type: cell-based
Method: FIG. 1. […] Cell viability was analyzed by MTS 48 hours post-treatment. […] TET1 expression levels were detected by qPCR 48 hrs post-treatment. […] TET1 expression levels (e) and cell viability (f) were detected 24 hrs post-treatment. *, P<0.05, two-tailed t-test. MM6, MONOMAC-6. Error bar indicates SD of triplicate experiments.
Total RNA was extracted with the miRNeasy extraction kit (Qiagen) and was used as template for quantitative RT-PCR (qPCR) analysis.

[1] = Maximum tolerated dose and median lethal dose; assay type: in vivo
THP-1 and KASUMI-1 cells = test: Combination with daunorubicin in AML cells; assay type: cell-based; conditions: 25 nM compound and 100 nM DNR; 48 hours
[2] = tested on: normal hematopoietic stem/progenitor cells (c-Kit+ BM cells); test: MTS and apoptosis assays in normal HSPCs; assay type: cell-based, mice; conditions: 50 nM; 3 days
Method: FIG. 14. […] BM cells of leukemic mice with MLL-AF9 fusion (MA9-AML) or FLT3-ITD/NPM1^mut, and c-Kit^+ HSPCs from a pool of 6 healthy donor mice were cultured in liquid medium. […] MTS (a), apoptosis assays (b) and qPCR (c) were conducted 3 days after cell seeding or drug treatments. Error bar indicates SD of triplicate experiments.
(§1) These experiments were conducted as described previously (Jiang, X., et al., Blockade of miR-150 Maturation by MLL-Fusion/MYC/LIN-28 Is Required for MLL-Associated Leukemia, Cancer Cell 22:524-35 (2012); Li, Z., et al., miR-196b directly targets both HOXA9/MEIS1 oncogenes and FAS tumour suppressor in MLL-rearranged leukaemia, Nat Commun 2:688 (2012)) with ApoLive-Glo Multiplex Assay Kit, or CellTiter 96 AQueous Non-Radioactive Cell Proliferation Assay Kit (Promega, Madison, Wis.).

[3] = tested on: Tet1 deficient mouse BM progenitor cells transduced with MLL-AF9; test: Viability of MLL-AF9-transduced Tet1 deficient BM progenitor cells; assay type: cell-based; conditions: 48 hrs; for cell viability: Tet1 deficient counterpart cells; for viability of cells with induced Tet1 deficiency: conditional Tet1 knockout, polyI:C induced, 500 nM
Method: FIG. 5. […] Gene expression levels are shown. […] ChIP-qPCR assay was carried out 48 hrs after drug treatment. Enrichment of STAT3, STAT5, or IgG at the TET1 promoter region and other regions are shown. […] BM progenitor cells of wild-type or Tet1^−/− mice were retrovirally transduced with MLL-AF9. […] Relative cell viabilities are shown. (m) Cre-Tet1f mouse BM progenitor cells were retrovirally transduced with MLL-AF9. […] Relative cell viability is shown. (n-o) THP-1 (n) and MONOMAC-6 (o) cells were infected with lentivirus of pLenti-puro vector-based Tet1 construct. […] Relative cell viability is shown. *, P<0.05; **, P<0.01, two-tailed t-test. Error bar indicates SD of triplicate experiments.
FIG. 13. […] (a-d) BM progenitor cells of wild-type or Tet1^−/− mice were retrovirally transduced with MLL-AF9. Infected cells were treated with 200 nM JAK/STAT inhibitors individually, including Pacritinib (a), KW-2449 (b), Stattic (c) or sc-355979 (d), for 48 hrs. Relative cell viabilities are shown. (e) Cre-Tet1^fl/fl mouse BM progenitor cells were retrovirally transduced with MLL-AF9. […] Cell viabilities (normalized to non-induced Cre-Tet1^fl/fl treated with DMSO control) are shown. ‘K, P<0.05; ‘K‘K, P<0.01, two-tailed t-test
siRNAs were transfected into MONOMAC-6 cells with Cell Line Nucleofector Kit V following program T-037, using the Amaxa Nucleofector Technology (Amaxa Biosystems, Berlin, Germany). Experiments were performed 48 h after transfection. Retrovirus infection of mouse BM progenitor cells were conducted as described previously with some modifications. Briefly, retrovirus vectors were co-transfected with pCL-Eco packaging vector (IMGENEX, San Diego, Calif.) into HEK293T cells using Effectene Transfection Reagent (Qiagen, Valencia, Calif.) to produce retrovirus. BM cells were harvested from a cohort of 4- to 6-week-old C57BL/6, Tet1^−/−, or Cre-Tet1^fl/fl donor mice after five days of 5-fluorouracil (5-FU) treatment, and primitive hematopoietic progenitor cells were enriched with Mouse Lineage Cell Depletion Kit (Miltenyi Biotec Inc., Auburn, Calif.). An aliquot of enriched hematopoietic progenitor cells was added to retroviral supernatant together with polybrene in cell culture plates, which were centrifuged at 2,000 g for 2 hours at 32° C. (i.e., spinoculation) and then the medium was replaced with fresh media and incubated for 20 hours at 37° C. Next day, the same procedure was repeated once. Infected cells were grown in RPMI 1640 medium containing 10 ng/mL murine recombinant IL-3, 10 ng/mL IL-6, 100 ng/mL murine recombinant SCF (R&D Systems, Minneapolis, Minn.), along with 1.0 mg/ml of G418. Experiments were performed 7 days after infection.
as §1

COc1cc(C(c2cc3c(cc2O)OCO3)N2CCCC2)cc(OC)c1OC (stereo not shown) [NSC-370284, 6-(1-Pyrrolidinyl(3,4,5-trimethoxyphenyl)methyl)-1,3-benzodioxol-5-ol]
TET1 transcription (TET1; 25 nM, 24 hours, MONOMAC-6, THP-1 and KOCL-48 cells): significant down-regulation | level of TET1 expression (TET1; TET1-high AML cells, 300 nM, qPCR 48 hrs): significantly repressed | LD50 ([1]; C57BL/6, mouse, in vivo, ip, C57BL/6, I.P., read-out: LD50): ~123 mg/kg | MTD ([1]; C57BL/6, mouse, in vivo, ip, mice, I.P., read-out: maximum tolerated dose): 65 to 85.6 mg/kg | Number of Death ([1]; I.P. 65 mg/kg, 10 exposed): 0 | Number of Death ([1]; I.P. 85.6 mg/kg, 10 exposed): 1 | Number of Death ([1]; I.P. 113.5 mg/kg, 10 exposed): 3 | Number of Death ([1]; I.P. 150 mg/kg, 10 exposed): 6 | Number of Death ([1]; I.P. 200 mg/kg, 10 exposed): 10 | combined effect with DNR on inhibiting viability (THP-1 and KASUMI-1 cells): works synergistically | toxicity on normal HSPCs (viability, apoptosis) [2]: no obvious toxicity | cell viability [3]: no such inhibition | viability of cells with induced Tet1 deficiency [3]: no significant effect

CC(C)(C)c1cc(C(c2cc3c(cc2O)OCO3)N2CCOCC2)cc(C(C)(C)C)c1O (stereo not shown) [UC-514321, 6-{[4-Hydroxy-3,5-bis(2-methyl-2-propanyl)phenyl](4-morpholinyl)methyl}-1,3-benzodioxol-5-ol]
expression of TET1, TET2, TET3 (TET1; MONOMAC-6 cells, 500 nM, 48 hrs): significantly repressed expression of TET1, but not TET2 or TET3 | MTD ([1]; C57BL/6, mouse, in vivo, ip): 65 to 85.6 mg/kg | Number of Death ([1]; C57BL/6, mouse, in vivo, ip, 65 mg/kg): 0 | Number of Death ([1]; C57BL/6, mouse, in vivo, ip, 85.6 mg/kg): 1 | Number of Death ([1]; C57BL/6, mouse, in vivo, ip, 113.5 mg/kg): 2 | Number of Death ([1]; C57BL/6, mouse, in vivo, ip, 150 mg/kg): 7 | Number of Death ([1]; C57BL/6, mouse, in vivo, ip, 200 mg/kg): 10 | LD50 ([1]; C57BL/6, mouse, in vivo, ip, LD50): ~123 mg/kg | combined effect with DNR on inhibiting viability (THP-1 and KASUMI-1 cells): works synergistically | toxicity on normal HSPCs (viability, apoptosis) [2]: no obvious toxicity | cell viability [3]: no such inhibition | viability of cells with induced Tet1 deficiency [3]: no significant effect
